The values that follow come from patent US8357117B2, “Device and method for delivering an agent into breast milk while breastfeeding” (Family Health International, priority 2008, dated 2013).

This series is described as follows: release of SDS from dried SDS-dipped non-woven disk in 10 ml syringe, water gravity fed. It counts as physicochemical. As to conditions: non-woven dipped in 20% SDS solution, 3 mm thick disk, no excipients. The text has this:
It was an unexpected result that, without the use of any excipients, a non-woven material could be dipped into an SDS solution to achieve significant loading and release of SDS. Specifically, a piece of soft non-woven material was dipped in a 20% solution of SDS, then dried on a drying rack. After drying, the material was hard and stiff, and felt like a piece of cardboard. It appeared unlikely that the resulting material would even be permeable to water.

In the case of `CCCCCCCCCCCCOS(=O)(=O)[O-].[Na+]` [SDS, sodium dodecyl sulphate], the “release of SDS into water” value is “rapidly released”.
